Test results from US20150065440A1 (Progen Pharmaceuticals Limited, priority 2007, published 2015).

Experiments:
HSV-1 [1] = assay: Anti-HSV screening assay (viral plaques), HSV-1; format: cell-based; conditions: 100 μg/mL, viral plaques relative to mock treated controls
Description: (§1) African green monkey kidney (GMK AH1) cells^46 were cultured in Eagle's minimum essential medium (EMEM) supplemented with 2% calf serum, 0.05% Primaton RL substance (Kraft Inc., Norwich, USA) and antibiotics. Human epidermoid carcinoma (HEp-2) cells were cultured in Dulbecco's modified EMEM (DMEM) supplemented with 10% fetal calf serum and antibiotics. […] The RSV strain A-2^50 was used. The RSV stock was prepared as described by Hallak et al.^51 and stored at −70° C. in the presence of 40% sucrose^52.
(§2) The viral infectivity (the plaque number-reduction) assay and the plaque size-reduction assay were carried out as described previously^17. […] Subsequently, the cells were washed with 2 mL of EMEM and overlaid with 1% methylcellulose solution in EMEM. The plaques were visualized by staining with crystal violet solution after 2 (HSV-2) or 3 (HSV-1) days of incubation at 37° C. […] When the compounds were screened for anti-HSV or anti-RSV activity, mixtures of 200 PFU of the virus and the test compound (100 μg/mL) in serum-free EMEM were incubated for 10 min at room temperature before addition to cells and during the entire period of viral infection of cells and the development of viral plaques. In the plaque size-reduction assay, the compounds were added to cells (in methylcellulose overlay medium) after 2 h period of virus infection of cells in the absence of the inhibitor. After 2-3 days of incubation at 37° C., the viral plaques were visualized by staining the cells with 1% solution of crystal violet. For each compound tested, the images of twenty neighboring plaques were captured using a Leica DC300 digital camera attached to a Leitz-Wetzlar Diavert microscope. The area of each plaque was determined using IM500 image software (Leica). Similar protocols were used for RSV, except that the assays were performed in HEp-2 cells and DMEM supplemented with 2% heat-inactivated fetal calf serum was used instead of EMEM.

FGF-1 = FGF-1 (Homo sapiens, UniProt P05230); assay: Growth factor binding assay (SPR solution affinity), FGF-1; conditions: SPR, HBS-EP buffer, 25° C.; read-out: Kd FGF-1
Sequence of FGF-1 (P05230 whole entry, species assumed): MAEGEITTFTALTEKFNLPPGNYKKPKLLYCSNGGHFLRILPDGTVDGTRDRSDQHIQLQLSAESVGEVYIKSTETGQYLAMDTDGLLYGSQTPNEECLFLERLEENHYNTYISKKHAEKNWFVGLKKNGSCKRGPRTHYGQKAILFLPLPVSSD

VEGF = biological target: T1, VEGF (Homo sapiens, UniProt P15692); assay: Growth factor binding assay (SPR solution affinity), VEGF; conditions: HBS-EP buffer, 25° C.
T1 sequence (P15692 207-395): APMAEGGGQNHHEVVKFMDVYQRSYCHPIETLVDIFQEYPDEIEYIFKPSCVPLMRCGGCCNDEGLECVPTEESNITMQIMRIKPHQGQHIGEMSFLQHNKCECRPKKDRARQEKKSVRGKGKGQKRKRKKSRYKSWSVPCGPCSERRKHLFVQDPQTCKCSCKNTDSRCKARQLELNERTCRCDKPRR
Method in brief: (§3)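 Kd measured by SPR solution affinity: fixed growth factor with varying ligand competing for heparin-coated sensorchip, 25 °C. Buffer HBS-EP pH 7.4 (150 mM NaCl) for FGF-1 and VEGF; FGF-2 with 0.3 M NaCl. Duplicate values averaged.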

GMK AH1 cells = assay: Cytotoxicity assay, GMK AH1; format: cell-based, African green monkey; conditions: cell viability reduced by 50%
Description: The assay was performed in GMK AH1 cells that had been seeded in 96 well cluster plates and reached approximately 80-90% confluence at day 2 of culture. The cells were washed with EMEM and incubated for 24 h at 37° C. with 100 μL of serial two-fold dilutions of the test compound in serum-free EMEM. The effect of the test compound on cell viability was measured by using the tetrazolium-based CellTiter96 assay according to the manufacturer's protocol (Promega, Madison, Wis., USA).

RSV = assay: Anti-RSV screening assay (viral plaques); format: cell-based; conditions: 100 μg/mL, viral plaques relative to mock treated controls
Description: as §1, §2

HSV-2 [2] = assay: Anti-HSV screening assay (viral plaques), HSV-2; format: cell-based; conditions: 100 μg/mL, viral plaques relative to mock treated controls
Description: as §1, §2

HSV-1 [3] = assay: Viral plaque number-reduction assay, HSV-1; conditions: GMK AH1 cells
Description: as §1, §2

HSV-2 [4] = assay: Viral plaque number-reduction assay, HSV-2; conditions: GMK AH1 cells
Description: as §1, §2

FGF-2 = FGF-2 (Homo sapiens, UniProt P09038); assay: Growth factor binding assay (SPR solution affinity), FGF-2; conditions: SPR, HBS-EP buffer containing 0.3 M NaCl, 25° C.; read-out: Kd FGF-2
Sequence of FGF-2 (P09038 143-288, species assumed): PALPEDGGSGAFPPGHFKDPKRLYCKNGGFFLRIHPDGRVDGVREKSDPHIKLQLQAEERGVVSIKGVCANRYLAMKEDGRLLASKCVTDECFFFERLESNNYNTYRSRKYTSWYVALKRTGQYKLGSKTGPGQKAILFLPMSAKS
Method in brief: as §3

[5] = biological target: T2, recombinant human heparanase (Homo sapiens, UniProt Q9Y251); assay: Heparanase inhibition assay (fondaparinux cleavage, WST-1); conditions: read-out: Ki Heparanase; IC50 converted into Ki; fondaparinux 100 μM, pH 5.0
T2 sequence (Q9Y251 158-543 limits assumed): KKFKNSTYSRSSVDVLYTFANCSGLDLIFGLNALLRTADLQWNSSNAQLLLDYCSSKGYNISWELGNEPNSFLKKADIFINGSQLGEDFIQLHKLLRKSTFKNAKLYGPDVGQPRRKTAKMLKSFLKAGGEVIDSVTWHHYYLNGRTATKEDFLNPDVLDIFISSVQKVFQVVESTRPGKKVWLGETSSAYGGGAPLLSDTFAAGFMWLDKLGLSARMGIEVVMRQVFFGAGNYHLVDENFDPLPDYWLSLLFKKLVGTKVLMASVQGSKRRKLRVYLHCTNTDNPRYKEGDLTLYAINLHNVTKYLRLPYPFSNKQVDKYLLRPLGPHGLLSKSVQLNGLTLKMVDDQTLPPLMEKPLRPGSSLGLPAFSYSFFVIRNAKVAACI
T2 sequence (Q9Y251 36-109 limits assumed): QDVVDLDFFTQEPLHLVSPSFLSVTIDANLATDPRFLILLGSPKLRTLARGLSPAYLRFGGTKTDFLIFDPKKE

## O=S(=O)(O)OCC1OC(OC2C(OCCCCCCCCCCCCn3cc(-c4cccc5ccccc45)nn3)OC(COS(=O)(=O)O)C(OS(=O)(=O)O)C2OS(=O)(=O)O)C(OS(=O)(=O)O)C(OC2OC(COS(=O)(=O)O)C(OS(=O)(=O)O)C(OC3OC(COS(=O)(=O)O)C(OS(=O)(=O)O)C(OC4OC(COS(=O)(=O)O)C(OS(=O)(=O)O)C(OS(=O)(=O)O)C4OS(=O)(=O)O)C3OS(=O)(=O)O)C2OS(=O)(=O)O)C1OS(=O)(=O)O [Compound 11, 12-(4-Naphthalen-1-yl-[1,2,3]triazol-1-yl)dodecyl 2,3,4,6-tetra-O-sodium sulfonato-α-D-mannopyranosyl-(1→3)-2,4,6-tri-O-sodium sulfonato-α-D-mannopyranosyl-(1→3)-2,4,6-tri-O-sodium sulfonato-α-D-mannopyranosyl-(1→3)-2,4,6-tri-O-sodium sulfonato-α-D-mannopyranosyl-(1→2)-3,4,6-tri-O-sodium sulfonato-α-D-mannopyranoside]
HSV-1 [1]
  Residual infectivity (%) HSV-1: 0%
FGF-1
  Kd: 0.19 ± 0.1 nM
VEGF
  Kd: 0.79 ± 0.24 nM
GMK AH1 cells
  Cytotoxicity CC50 GMK AH1: >400 µg/mL
RSV
  Residual infectivity (%) RSV: 0%
HSV-2 [2]
  Residual infectivity (%) HSV-2: 0%
HSV-1 [3]
  Selective index CC50/IC50 HSV-1: > 222
HSV-2 [4]
  Selective index CC50/IC50 HSV-2: > 444
FGF-2
  Kd: 73 ± 23 nM
[5]
  Ki: 4.8 ± 1.8 nM
